From patent US20150098969A1, “ALTERNARIA PEPTIDES” (priority 2012, published 2015)
Where no end group is shown, it is not given here. [ ]: non-standard residue; d: D form. pGlu = O=C1CC[C@@H](C(=O)O)N1; Nle = CCCC[C@H](N)C(=O)O

test system: Peripheral blood mononuclear cells (PBMCs); test: Cytokine release assay (multiplex bead assay IL-10, IL-13, IFN-g) and analysis of population coverage; type: cell-based, human; conditions: cytokine release greater than 50 pg/ml in one or more of IL-13, IL-10, IFN-g; 50 mould allergic subjects; 100 μg/ml; 5 days
Method: Polypeptides for use in this assay were manufactured at small scale (approximately 10 mg batch size, non-GMP). […] Polypeptides were added to wells in a volume of 100 μl containing polypeptides at a concentration of […], such that subsequent addition of 100 μl of cells would create a final assay concentration of 100 μg/ml.
Peripheral blood mononuclear cells (PBMCs) were isolated from heparinised blood by Ficoll density gradient centrifugation. […] Following stimulation, culture supernatants (100 μl) were harvested for testing by multiplex bead assay.
Multiplex cytokine bead assays (IL-10, IL-13, Interferon gamma (IFN-g)) were performed on thawed culture supernatants according to the manufacturer's instructions. Single measurements were performed for each culture supernatant sample. After completion of the multiplex assay, individual cytokine levels were determined by interpolation from the standard curve generated in the assay. A positive result was taken as a cytokine release of greater than 50 pg/ml in one or more of the IL-13, IL-10 and IFN-g assays. The number of responders out of 50 mould allergic subjects tested was calculated for each polypeptide for the three cytokines.
An analysis of population coverage was carried out to determine what polypeptides could advantageously capture additional responses from the population when included in combination with other peptides. The number of subjects in the population displaying IL-13 or IFN-g responses to at least one, two or three polypeptides included in a given combination was analysed.
An analysis of population coverage was then carried out for additional combinations of polypeptides identified as having preferable pharmaceutical development characteristics. The number of subjects in the population displaying IL-13 or IFN-g responses to at least one, two or three polypeptides included in a given combination was analysed.

For AEVYQKLKALAKK [Alt12], which “% responders” value is on record?
The value was 38%.

How did the “% responders” value turn out when AEVYQKLKALAKKTYGQ [Alt13A] was run?
The value was 86%.

Which “% responders” value does the source give for DITYVATATLPNYSR [Alt02A] here?
The value was 30%.

For GLHFRERKTGSLVIT [Alt21], which “% responders” value is on record?
Its value is 38%.

With “GWGV-Nle-VSHRSGET (GWGV[Nle]VSHRSGET) [Alt14A]” as the substance, how does the “% responders” value read?
The value was 56%.

With GWGVMVSHRSGET [Alt14] as the substance, how does the “% responders” value read?
The value was 44%.

Which “% responders” value does the source give for “GYTGKIKIA-Nle-DVASSE (GYTGKIKIA[Nle]DVASSE) [Alt15A]” here?
The value was 42%.

Which “% responders” value does the source give for GYTGKIKIAMDVASSE [Alt15] here?
Its value is 56%.

With HEIYVVDRVSAP [Alt30] as the substance, how does the “% responders” value read?
The value was 36%.

Which “% responders” value does the source give for IEKLRSNITVQYDI [Alt33] here?
Its value is 44%.

Which “% responders” value does the source give for IFRSLSKEDPDY [Alt04] here?
The value was 6%.

How did the “% responders” value turn out when IFRSLSKEEPDY [Alt04A] was run?
The value was 4%.

With KDAYITLVTLPKSS [Alt03] as the substance, how does the “% responders” value read?
Its value is 22%.

With KDITYVATATLPNY [Alt02] as the substance, how does the “% responders” value read?
Its value is 36%.

For KEYQKIFPSIQVI [Alt09], which “% responders” value is on record?
The value was 6%.

For KKDAYITLVTLPKSS [Alt03A], which “% responders” value is on record?
The value was 16%.

How did the “% responders” value turn out when “KKVS-Nle-AIAKAAAAEK (KKVS[Nle]AIAKAAAAEK) [Alt11A]” was run?
Its value is 44%.

With KKVSMAIAKAAAAEK [Alt11] as the substance, how does the “% responders” value read?
Its value is 36%.

How did the “% responders” value turn out when KKYAGVFVSTGTLGGGK [Alt18] was run?
The value was 50%.

Which “% responders” value does the source give for KLFQVAETLPQEVLDK [Alt17] here?
The value was 30%.

How did the “% responders” value turn out when “KLWHS-Nle-IP-Nle-GRDAK (KLWHS[Nle]IP[Nle]GRDAK) [Alt24A]” was run?
The value was 40%.

Which “% responders” value does the source give for “KLWHSMIP-Nle-GRDAK (KLWHSMIP[Nle]GRDAK) [Alt24C]” here?
The value was 36%.

For KLWHSMIPMGRDAK [Alt24], which “% responders” value is on record?
The value was 34%.

“KQLL-Nle-LSAKR-Nle-KVAFK (KQLL[Nle]LSAKR[Nle]KVAFK) [Alt05A]” was tested. Which “% responders” value did it give?
Its value is 10%.

How did the “% responders” value turn out when “KQLL-Nle-LSAKRMKVAFK (KQLL[Nle]LSAKRMKVAFK) [Alt05B]” was run?
Its value is 12%.

How did the “% responders” value turn out when KQLLMLSAKR-Nle-KVAFK [Alt05C] was run?
The value was 16%.

Which “% responders” value does the source give for KQLLMLSAKRMKVAFK [Alt05] here?
The value was 2%.

With KRSLLVFAVRSS-Nle-ELRK [Alt27A] as the substance, how does the “% responders” value read?
The value was 42%.

Which “% responders” value does the source give for KRSLLVFAVRSSMELRK [Alt27] here?
Its value is 40%.

For KSAFRSIEPELTVYK [Alt10A], which “% responders” value is on record?
Its value is 34%.

How did the “% responders” value turn out when KTYVATATLPNY [Alt02B] was run?
Its value is 22%.

How did the “% responders” value turn out when KYRRVVRAGVKVAQTAR [Alt34A] was run?
Its value is 38%.

Which “% responders” value does the source give for KYWLYFYKLHPEK [Alt32] here?
The value was 36%.

Which “% responders” value does the source give for LAITYNSRAEGAEK [Alt20] here?
The value was 38%.

How did the “% responders” value turn out when LQFTLYRPRDLLS [Alt07] was run?
Its value is 10%.

With NEWRDFARVNSISP [Alt23] as the substance, how does the “% responders” value read?
The value was 40%.

For NWLTLHTAALGPTAK [Alt31], which “% responders” value is on record?
Its value is 58%.

“PyrKLKALAKKTYGQ ([pGlu]KLKALAKKTYGQ) [Alt13]” was tested. Which “% responders” value did it give?
The value was 40%.

How did the “% responders” value turn out when SAFRSIEPELTVY [Alt10] was run?
Its value is 42%.

Which “% responders” value does the source give for “SAKR-Nle-KVAFKLDIEK (SAKR[Nle]KVAFKLDIEK) [Alt06A]” here?
The value was 10%.

How did the “% responders” value turn out when SAKRMKVAFKLDIEK [Alt06] was run?
The value was 16%.

Which “% responders” value does the source give for SLGFNIKATNGGTLD [Alt01A] here?
The value was 26%.

With SYNVAKAGCIHLAK [Alt22] as the substance, how does the “% responders” value read?
The value was 46%.

Which “% responders” value does the source give for SYNVAKAGSIHLAK [Alt22A] here?
The value was 44%.

TLYRPRDLLSLLNE [Alt08] was tested. Which “% responders” value did it give?
The value was 10%.

How did the “% responders” value turn out when TYYNSLGFNIKATNGGTL [Alt01] was run?
The value was 20%.

How did the “% responders” value turn out when WSWKIGPAIATGNT [Alt28] was run?
The value was 52%.

Which “% responders” value does the source give for YEKYRRVVRAGVKV [Alt34] here?
The value was 38%.

same assay, conditions: responders out of 50 individuals

With AEVYQKLKALAKKTYGQ [Alt13A] as the substance, how does the “individuals showing a response” value read?
Its value is 34/50.
